From patent US11330999B2 (MEMORIAL SLOAN KETTERING CANCER CENTER, priority 2017, dated 2022) come the findings set out here.

Data set [1] in a line: Thermal equilibrium T1 at high field (14.1T), inversion recovery. It is filed as physicochemical. The protocol:
(§1) [5-^13C]-glutamine (Cambridge Isotope Laboratories), [^13C]-urea (Sigma Aldrich), [^13C, ^15N2]-urea (Sigma Aldrich), [6-^13C]-arginine (Cambridge Isotope Laboratories), [5-^13C, ^15N]-glutamine (24) (24, as described in Example 7) and [6-^13C, ^15N3]-arginine (21, as described in Example 2) were evaluated to determine thermal equilibrium T1 and T2. An aliquot of each compound was dissolved in 95:5 D2O:H2O containing 100 mM Tris pD 7.4 and 100% H2O containing 100 mM Tris pH 7.4. [^13C]-urea and [^13C, ^15N2]-urea were dissolved to a final concentration of 100 mM.
(§2) ^13C NMR spectra for each compound dissolved in 95:5 D2O:H2O and 100% H2O was obtained with a 14.1T ^13C NMR (Bruker, USA). For inversion recovery experiments, 13 to 15 different delay times between the 180° and 90° pulses, spanning 3T1, were sampled. Each spectrum was an average of 3 to 4 scans, and a 5T1 to 6T1 pre-scan wait time was used to allow re-polarization of carbon nuclear spins between scans. T2 values were measured using a Carr-Purcell-Meiboom-Gill (CPMG) sequence for each compound dissolved in 95:5 D2O:H2O and 100% H2O. A 10 ms (or 5 ms ^13C-urea samples) wait-time between 180° pulses was used, and signal was acquired at total echo times spanning 3T2. For both T1- and T2-relaxation curve fitting, spectra were imported into Mnova (Mestrelabs, USA) and the area under the curve (AUC) of the ^13C resonance of interest was integrated. AUC values were exported to Prism 7 (GraphPad Software, USA), plotted against time on the x-axis, and data points were fit to the Bloch equations for T1 and T2.
(§3) When each compound was dissolved in D2O, the exchangeable protons on the nitrogen atoms rapidly exchange with deuterium in the solvent. As described in Table 1, at high field, each compound having protons exchanged with deuterium extended the T1 of ^13C relaxation times directly bonded to —NH or —NH2 residues, respectively. This effect is further illustrated for [6-^13C]-/[6-^13C, ^15N3]-arginine in FIG. 7.

Data set [2] is described as follows: Thermal equilibrium T2 at high field (14.1T), CPMG. It is filed as physicochemical. The protocol: as §1, §2, §3
Data set [3] in a line: Hyperpolarized T1 at 1T after dissolution in buffered H2O or D2O. Type of data set: physicochemical. The procedure: Each compound was prepared with a different formulation, as follows: [5-^13C]- and [5-^13C, ^15N]-glutamine was mixed with 1.1 equivalent HCl and dissolved to a final concentration of 1.5 Min H2O:DMSO (65:35). [^13C]— and [^13C, ^15N2]-urea was dissolved to a final concentration of 6M in glycerol. [6-^13C]- and [6-^13C, ^15N3]-arginine was mixed with 1 equivalent HCl and dissolved to a final concentration of 3.2M in H2O. Each of these preparations also contained OX063 radical (General Electric, UK) dissolved to a final concentration of 15 mM. [^13C]—/[^13C, ^15N2]-urea and [6-^13C]-/[6-^13C, ^15N3]-arginine samples were polarized in a 3.35T SpinLab Polarizer (General Electric, UK) for 1.5 hours (0.83K, 93.98 GHz), while: [5-^13C]-/[^13C, ^15N]-glutamine samples were polarized in a 5T SpinLab Polarizer for 2 hours (0.83K, 93.98 GHz). Following polarization, the HP substrate was ejected from the polarizer via rapid dissolution, during which a superheated solution of 100 mM Tris 1 mM EDTA in pH 7.4 H2O or pD 7.4 D2O is run through the sample vial to dissolve the polarized substrate and eject it into a pre-chilled glass vial (−20° C.).

Data set [4] can be described thus: In vivo 13C EPI imaging of hyperpolarized urea in mouse. The following applies: healthy female Balb/c mouse, monitored for 30 minutes. The protocol:
Hyperpolarized [^13C, ^15N2]-urea was studied under clinical imaging conditions. A healthy female Balb/c mouse (12 weeks old) was injected with identical volumes of hyperpolarized [^13C, ^15N]-urea dissolved in either buffered D2O or H2O (FIG. 9A). Both samples were polarized for similar amounts of time and were dissolved to similar final concentrations. Immediately following the end of the injection, an axial 2D ^13C echo-planar imaging (EPI) sequence was initiated with a 3 s repetition time, 16×16 resolution with 2.25 mm×2.25 mm×10 mm voxels.

The mark [5] stands for this setting: 95:5 D2O:H2O, 100 mM Tris pD 7.4.

For the compound `[15NH2][13C]([15NH2])=O` [Urea ^13C, ^15N2, [^13C, ^15N2]-urea], in data set [1] (setting [5]), the “T1 Value (s) D2O” value is 57.34 ± 2.04 s. Further, the “T1 Value (s) H2O” value in data set [1] (100% H2O, 100 mM Tris pH 7.4) turned out to be 31.97 ± 1.38 s. Further, the “T2 Value (s) D2O” value in data set [2] (setting [5]) was found to be 34.61 ± 0.64 s. The “T2 Value (s) H2O” value in data set [2] (100% H2O, 100 mM Tris pH 7.4) was 20.12 ± 0.17 s. Moreover, in data set [3] (dissolution in 100 mM Tris 1 mM EDTA pD 7.4 D2O), the “Hyperpolarized T1 Value (s) D2O” value came out at 115.9 ± 8.5 s. Also, the “Hyperpolarized T1 Value (s) H2O” value in data set [3] (dissolution in 100 mM Tris 1 mM EDTA pH 7.4 H2O) is 53.3 ± 2.6 s. Also, the “morbidity after the two injections” value in data set [4] is on record as “no obvious morbidity”.
